ChEMBL document CHEMBL6109095, “Impact of fixed phosphorus position on activity of triazole bisphosphonates as geranylgeranyl diphosphate synthase inhibitors” (Bioorg Med Chem, 2025)
Active and inactive are the calls of the source. The calls are words filed in the database; no cut-off is given here.

What was measured:
[1] = molecular target: T1, Geranylgeranyl pyrophosphate synthase (Homo sapiens) (UniProt O95749); test: Inhibition of GGDPS in human RPMI-8226 cells assessed as lowest effective concentration required for increase in intracellular lambda chain level after 48 hrs by ELISA; format: cell-based
T1 sequence (whole entry): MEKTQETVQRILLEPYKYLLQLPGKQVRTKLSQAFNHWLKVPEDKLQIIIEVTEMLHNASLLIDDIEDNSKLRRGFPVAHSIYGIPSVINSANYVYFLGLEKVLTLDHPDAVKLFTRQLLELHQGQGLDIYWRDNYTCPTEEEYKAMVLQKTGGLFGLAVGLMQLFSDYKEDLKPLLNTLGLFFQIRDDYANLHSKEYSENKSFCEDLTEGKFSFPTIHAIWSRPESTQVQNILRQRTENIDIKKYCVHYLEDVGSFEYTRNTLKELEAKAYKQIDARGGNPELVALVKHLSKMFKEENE

[2] = molecular target: T1, Geranylgeranyl pyrophosphate synthase (Homo sapiens); test: Inhibition of GGDPS in human RPMI-8226 cells assessed as lowest effective concentration required to show unmodified Rap1a band measured after 48 hrs by immunoblot analysis; format: cell-based
[3] = molecular target: T2, Geranylgeranyl pyrophosphate synthase (Homo sapiens, UniProt O95749); test: Inhibition of recombinant GGDPS (unknown origin) using [14C] IPP and FPP as substrate preincubated for 10 mins followed by substrate addition and measured after 30 mins by scintillation counting method
T2 sequence (O95749 whole entry): T1 sequence (whole entry)

[4] = molecular target: T1, Geranylgeranyl pyrophosphate synthase (Homo sapiens); test: Inhibition of GGDPS in human SAOS-2 cells assessed as lowest effective concentration required to show unmodified Rap1a band measured after 48 hrs by immunoblot analysis; format: cell-based
[5] = molecular target: T1, Geranylgeranyl pyrophosphate synthase (Homo sapiens); test: Inhibition of GGDPS in human 143B cells assessed as lowest effective concentration required to show unmodified Rap1a band measured after 48 hrs by immunoblot analysis; format: cell-based
[6] = molecular target: T1, Geranylgeranyl pyrophosphate synthase (Homo sapiens); test: Inhibition of GGDPS in human MM1.S cells assessed as appearance of unmodified Rap1a band measured after 48 hrs by immunoblot analysis; format: cell-based
[7] = molecular target: T1, Geranylgeranyl pyrophosphate synthase (Homo sapiens); test: Inhibition of GGDPS in human MG-63 cells assessed as lowest effective concentration required to show unmodified Rap1a band measured after 48 hrs by immunoblot analysis; format: cell-based
[8] = molecular target: T1, Geranylgeranyl pyrophosphate synthase (Homo sapiens); test: Inhibition of GGDPS in human MM1.S cells assessed as lowest effective concentration required to show unmodified Rap1a band measured after 48 hrs by immunoblot analysis; format: cell-based
RPMI-8226 = test: Cytotoxicity against human RPMI-8226 cells assessed as reduction in cell viability up to 10 uM measured after 48 hrs by MTT assay; format: functional, cell-based
143B = test: Cytotoxicity against human 143B cells assessed as reduction in cell viability up to 10 uM measured after 48 hrs by MTT assay; format: functional, cell-based
[9] = molecular target: T1, Geranylgeranyl pyrophosphate synthase (Homo sapiens); test: Inhibition of GGDPS in human MM1.S cells assessed as appearance of unmodified Rap1a band at 1 to 100 uM measured after 48 hrs by immunoblot analysis; format: cell-based; conditions: dose 1-100 µM
[10] = Apparent permeability of the compound by PAMPA; format: ADME
[11] = molecular target: T1, Geranylgeranyl pyrophosphate synthase (Homo sapiens); test: Inhibition of GGDPS in human RPMI-8226 cells assessed as increase in intracellular lambda chain level up to 100 uM after 48 hrs by ELISA; format: cell-based
[12] = molecular target: T1, Geranylgeranyl pyrophosphate synthase (Homo sapiens); test: Inhibition of GGDPS in human 143B cells assessed as appearance of unmodified Rap1a band at 0.1 to 1 uM measured after 48 hrs by immunoblot analysis; format: cell-based; conditions: dose 0.1-1 µM
[13] = molecular target: T1, Geranylgeranyl pyrophosphate synthase (Homo sapiens); test: Inhibition of GGDPS in human MG-63 cells assessed as appearance of unmodified Rap1a band at 0.1 to 1 uM measured after 48 hrs by immunoblot analysis; format: cell-based; conditions: dose 0.1-1 µM
[14] = molecular target: T1, Geranylgeranyl pyrophosphate synthase (Homo sapiens); test: Inhibition of GGDPS in human RPMI-8226 cells assessed as appearance of unmodified Rap1a band up to 100 uM measured after 48 hrs by immunoblot analysis; format: cell-based
[15] = molecular target: T1, Geranylgeranyl pyrophosphate synthase (Homo sapiens); test: Inhibition of GGDPS in human SAOS-2 cells assessed as appearance of unmodified Rap1a band at 0.1 to 1 uM measured after 48 hrs by immunoblot analysis; format: cell-based; conditions: dose 0.1-1 µM

SMILES | LED [1] [µM] | LED [2] [µM] | IC50 [3] [nM] | LED [4] [µM] | LED [5] [µM] | LED [7] [µM] | also measured
CC(C)=CCC/C(C)=C/CCn1cc(CC(P(=O)(O)O)P(=O)(O)O)nn1 | 0.09 | 0.09 |  |  |  |  | 
CC(C)=CCCC(C)CCCn1cc(C=C(P(=O)(O)O)P(=O)(O)O)nn1 (stereo unspecified) | 50 | 50 | > 100000 |  |  |  | 
CC(C)=CCC/C(C)=C/CCn1cc(C2CC2(P(=O)(OCOC(=O)C(C)(C)C)OCOC(=O)C(C)(C)C)P(=O)(OCOC(=O)C(C)(C)C)OCOC(=O)C(C)(C)C)nn1 (stereo unspecified) | 5 | 5 |  | 5 | 5 | 5 | inhibition [6]: Not active; No Evidence Of Disruption Of Geranylgeranylation Was Observed
CC(C)=CCCC(C)=CCCn1cc(CC(P(=O)(O)O)P(=O)(O)O)nn1 | 0.03 | 0.03 |  |  |  |  | 
CC(C)=CCCC(C)=CCn1cc(C2OC2(P(=O)(O)O)P(=O)(O)O)nn1 (stereo unspecified) | 5 | 5 | 11000 | 0.5 | 5 | 5 | LED [8]: 5 µM
CC(C)=CCC/C(C)=C/CCn1cc(C=C(P(=O)(O)O)P(=O)(O)O)nn1 | 0.25 | 0.25 | 400 | 0.01 | 0.25 | 0.25 | Activity (RPMI-8226): Active; LED [8]: 0.25 µM; Activity (143B): Active
CC(C)=CCC/C(C)=C\CCn1cc(CC(C)(P(=O)(O)O)P(=O)(O)O)nn1 |  | 0.025 |  |  |  |  | 
CC(C)=CCCC(C)=CCn1cc(C=C(P(=O)(O)O)P(=O)(O)O)nn1 | 0.25 | 0.25 |  |  |  |  | 
CC(C)=CCC/C(C)=C/CCn1cc(C2CC2(P(=O)([O-])[O-])P(=O)([O-])[O-])nn1.[Na+].[Na+].[Na+].[Na+] (stereo unspecified) | 100 | 100 | 890 | 5 | 5 | 5 | inhibition [9]: Not active; No Appreciable Activity Observed; Papp [10]: 0.061 10^-6 cm/s
CC(C)=CCCC(C)=CCn1cc(CC(P(=O)(O)O)P(=O)(O)O)nn1 | 0.5 | 0.5 |  |  |  |  | 
CC(C)=CCC/C(C)=C\CCn1cc(C=C(P(=O)(O)O)P(=O)(O)O)nn1 | 0.25 | 0.25 | 370 | 0.01 | 0.25 | 0.25 | Activity (RPMI-8226): Active; LED [8]: 0.25 µM; Activity (143B): Active
CC(C)=CCC/C(C)=C/CCn1cc(C2OC2(P(=O)(O)O)P(=O)(O)O)nn1 (stereo unspecified) |  |  | 450 |  |  |  | inhibition [11]: inactive; inhibition [12]: Active; inhibition [13]: Active; inhibition [14]: inactive; inhibition [15]: Active
CC(C)=CCCC(C)CCCn1cc(CC(P(=O)(O)O)P(=O)(O)O)nn1 (stereo unspecified) | 10 | 10 | 25100 |  |  |  | 
CC(C)=CCC/C(C)=C\CCn1cc(C2OC2(P(=O)(O)O)P(=O)(O)O)nn1 (stereo unspecified) | 2.5 | 2.5 | 2360 |  |  |  | inhibition [12]: Active; inhibition [13]: Active; inhibition [15]: Active
CC(C)=CCCC(C)CCCn1cc(C2CC2(P(=O)(O)O)P(=O)(O)O)nn1 (stereo unspecified) |  |  | > 100000 |  |  |  | inhibition [11]: inactive; inhibition [14]: inactive
CC(C)=CCCC(C)=CCn1cc(C2CC2(P(=O)(O)O)P(=O)(O)O)nn1 (stereo unspecified) | 0.5 | 0.5 |  |  |  |  | 
CC(C)=CCC/C(C)=C\CCn1cc(C2CC2(P(=O)([O-])[O-])P(=O)([O-])[O-])nn1.[Na+].[Na+].[Na+].[Na+] (stereo unspecified) | 100 | 100 | 2870 | 50 | 50 | 50 | inhibition [9]: Not active; No Appreciable Activity Observed; Papp [10]: 0.283 10^-6 cm/s
CC(C)=CCC/C(C)=C/CCn1cc(CC(C)(P(=O)(O)O)P(=O)(O)O)nn1 | 0.02 | 0.02 |  |  |  |  | 
